Series [1] relates to Blumeria graminis f. sp. hordei. In words: Example G: Blumeria test (barley)/preventive. It counts as in vivo. To be noted: 500 ppm of active ingredient, preventive, evaluated 7 days after inoculation. The method, then:
(§1) Solvent: 49 parts by weight of N,N-dimethylacetamide Emulsifier: 1 part by weight of alkylaryl polyglycol ether To produce a suitable preparation of active compound, 1 part by weight of active compound or active compound combination is mixed with the stated amounts of solvent and emulsifier, and the concentrate is diluted with water to the desired concentration. To test for preventive activity, young plants are sprayed with the preparation of active compound or active compound combination at the stated rate of application. After the spray coating has been dried, the plants are dusted with spores of Blumeria graminis f. sp. hordei.

For series [2], the system named is Fusarium graminearum. In kind it is in vivo. To be noted: 500 ppm of active ingredient; barley, preventive; evaluated 5 days after inoculation.
In series [3] the test system is Septoria tritici. In words: Example D: in vivo preventive test on Septoria tritici (leaf spot on wheat). The conditions noted are these: wheat plants, preventive spray, evaluated 24 days after inoculation. How it is done: The young plants of wheat are treated by spraying the active ingredient prepared as described above. Control plants are treated only with an aqueous solution of acetone/Dimethyl sulfoxide/Tween®. After 24 hours, the plants are contaminated by spraying the leaves with an aqueous suspension of Septoria tritici spores.

The test system of series [4] is Pyrenophora teres. In words: Example C: in vivo preventive test on Pyrenophora teres (net blotch on barley). The conditions noted are these: 500 ppm of active ingredient; barley plants, preventive spray; evaluated 14 days after inoculation. The method, then: The young plants of barley are treated by spraying the active ingredient prepared as described above. Control plants are treated only with an aqueous solution of acetone/Dimethyl sulfoxide/Tween®. After 24 hours, the plants are contaminated by spraying the leaves with an aqueous suspension of Pyrenophora teres spores.

Series [5] relates to Fusarium nivale (var. majus). In words: Example J: Fusarium nivale (var. majus)-test (wheat)/preventive. In kind it is in vivo. To be noted: 500 ppm of active ingredient, preventive, evaluated 5 days after inoculation. How it is done:
(§2) Solvent: 49 parts by weight of N,N-dimethylacetamide
(§3) Emulsifier: 1 part by weight of alkylaryl polyglycol ether
(§4) To produce a suitable preparation of active compound, 1 part by weight of active compound or active compound combination is mixed with the stated amounts of solvent and emulsifier, and the concentrate is diluted with water to the desired concentration.
To test for preventive activity, young plants are sprayed with the preparation of active compound or active compound combination at the stated rate of application.
After the spray coating has been dried, the plants are slightly injured by using a sandblast and afterwards they are sprayed with a conidia suspension of Fusarium nivale (var. majus).
The plants are placed in the greenhouse under a translucent incubation cabinet at a temperature of approximately 10° C. and a relative atmospheric humidity of approximately 100%.
(§5) The test is evaluated 5 days after the inoculation. 0% means an efficacy which corresponds to that of the untreated control, while an efficacy of 100% means that no disease is observed.

For series [6], the system named is Pyricularia oryzae. It counts as in vivo. The conditions noted are these: 500 ppm of active ingredient; rice, preventive; evaluated 8 days after inoculation.
Series [7] relates to Puccinia recondita. In words: Example B: in vivo preventive test on Puccinia recondita (brown rust on wheat). The conditions noted are these: wheat plants, preventive spray, evaluated 11 days after inoculation. The method, then: The young plants of wheat are treated by spraying the active ingredient prepared as described above. Control plants are treated only with an aqueous solution of acetone/Dimethyl sulfoxide/Tween®. After 24 hours, the plants are contaminated by spraying the leaves with an aqueous suspension of Puccinia recondita spores.

For series [8], the system named is Sphaerotheca fuliginea. In words: Example E: in vivo preventive test on Sphaerotheca fuliginea (powdery mildew on cucurbits). The conditions noted are these: gherkin plants, preventive spray, evaluated 15 days after inoculation. How it is done: The young plants of gherkin are treated by spraying the active ingredient prepared as described above. Control plants are treated only with an aqueous solution of acetone/Dimethyl sulfoxide/Tween®. After 24 hours, the plants are contaminated by spraying the leaves with an aqueous suspension of Sphaerotheca fuliginea spores.

For series [9], the system named is Botrytis cinerea. The experiment in a line: Example A: in vivo preventive test on Botrytis cinerea (grey mould). The conditions noted are these: gherkin plants, preventive spray, evaluated 4 to 5 days after inoculation. How it is done: The young plants of gherkin are treated by spraying the active ingredient prepared as described above. Control plants are treated only with an aqueous solution of acetone/Dimethyl sulfoxide/Tween®. After 24 hours, the plants are contaminated by spraying the leaves with an aqueous suspension of Botrytis cinerea spores.

Series [10] has as its system Uromyces appendiculatus. In words: Example F: in vivo preventive test on Uromyces appendiculatus (bean rust). To be noted: bean plants, preventive spray, evaluated 11 days after inoculation. The method, then:
The young plants of bean are treated by spraying the active ingredient prepared as described above. Control plants are treated only with an aqueous solution of acetone/Dimethyl sulfoxide/Tween®. After 24 hours, the plants are contaminated by spraying the leaves with an aqueous suspension of Uromyces appendiculatus spores.

The test system of series [11] is Phakopsora pachyrhizi. The experiment in a line: Example L: Phakopsora test (soybeans)/preventive. It counts as in vivo. The conditions noted are these: preventive, evaluated 7 days after inoculation.
In series [12] the test system is Leptosphaeria nodorum. In words: Example K: Leptosphaeria nodorum test (wheat)/preventive. In kind it is in vivo. The conditions noted are these: 500 ppm of active ingredient, preventive, evaluated 8 days after inoculation. How it is done:
as §1, with “sprayed” for “dusted”, “a spore suspension” for “spores”, “Leptosphaeria nodorum.” for “Blumeria graminis f. sp. hordei.”

The test system of series [13] is Fusarium culmorum. The experiment in a line: Example H: Fusarium culmorum-test (wheat)/curative. In kind it is in vivo. To be noted: 500 ppm of active ingredient, curative, evaluated 5 days after inoculation. How it is done:
as §2, §3, §4
To test for curative activity, young plants are slightly injured by using a sandblast and afterwards they are sprayed with a conidia suspension of Fusarium culmorum and placed for 24 hours in a greenhouse under a translucent incubation cabinet at a temperature of approximately 22° C. and a relative atmospheric humidity of approximately 100% and are subsequently sprayed with the preparation of active compound at the stated rate of application.
After the spray coating has been dried, the plants remain in the greenhouse under translucent incubation cloches at a temperature of approximately 22° C. and a relative atmospheric humidity of approximately 100%.
as §5

Where two headings read alike, the source gives them in different places. Marks after values point to notes of the source that are not given here.

Turning to `OC(Cc1nccnc1Br)(Cn1cncn1)C1(Cl)CC1` (racemic) [Example I-71], the Eff. % in series [1] is 100%; in series [2] it was 100%; in series [3] (500 ppm of active ingredient), 100%; in series [4] it was 79%; in [5], 94%; in [6], 80%. Besides, the Eff. % in [7] (500 ppm of active ingredient) is 94%; in [8] (500 ppm of active ingredient), 100%; in [9] (500 ppm of active ingredient), 100%; in [10] (500 ppm of active ingredient), 99%. Where the note is “pH 2.7”, the LogP is 1.96^[a].
Regarding `OC(Cc1ccncc1Cl)(Cn1cncn1)C1CCC1` (racemic) [Example I-77], the Eff. % in series [11] (100 ppm of active ingredient) came out at 100%; in series [1], 100%; in series [2], 86%; in series [3] (500 ppm of active ingredient), 100%; in [4] it was 86%; in series [5], 83%. In addition, the Eff. % is recorded as 86% in series [6]; 98% in [7] (500 ppm of active ingredient); 100% in series [8] (500 ppm of active ingredient); 100% in series [9] (500 ppm of active ingredient); 100% in series [10] (500 ppm of active ingredient). Also, the LogP (pH 2.7) is 1.46^[a].
For the compound `OC(Cc1ccncc1C(F)(F)F)(Cn1cncn1)C1(Cl)CC1` (racemic) [Example I-81], the Eff. % in [11] (10 ppm of active ingredient) was found to be 85%; in series [1] it was 100%; in [2] it was 100%; in [3] (500 ppm of active ingredient), 100%; in series [4], 97%; in [12] it was 100%. Further, the Eff. % in series [5] is given as 100%; in [6], 100%; in [7] (500 ppm of active ingredient) it was 100%; in series [8] (500 ppm of active ingredient) it was 100%; in series [9] (500 ppm of active ingredient) it was 99%; in series [10] (500 ppm of active ingredient), 100%. The LogP (pH 2.7) is 2.08^[a].
As to `OC(Cc1cccnc1Cl)(Cn1cncn1)C1(Cl)CC1` (single isomer, unassigned) [Example I-94], the Eff. % was 100% in series [1], 71% in series [12], 100% in series [5] and 70% in series [6]. Also, the LogP by setting is: (pH 2.7) 1.81^[a]; (pH 7.8) 1.79^[b];.
Regarding `OC(Cc1cccnc1Cl)(Cn1cncn1)C1(Cl)CC1` (single isomer, unassigned) [Example I-95], the Eff. % in series [1], in [2], in [12], in series [5] and in series [6] was 100% throughout. In addition, the LogP by setting is: (pH 2.7) 1.81^[a]; (pH 7.8) 1.79^[b];.
As to `OC(Cc1ccc(Cl)nc1)(Cn1cncn1)C1(Cl)CC1` (stereo not shown) [Example I-4], the Eff. % in [11] (100 ppm of active ingredient) came out at 95%; in series [1], 100%; in series [3] (500 ppm of active ingredient), 96%; in [13] it was 92%; in series [12], 80%; in series [5], 71%. Moreover, the Eff. % in series [7] (500 ppm of active ingredient) amounted to 100%; in series [8] (500 ppm of active ingredient) it was 100%; in series [9] (500 ppm of active ingredient), 100%; in series [10] (500 ppm of active ingredient), 97%. Moreover, under “pH 2.7”, the LogP was 1.84^[a].
Turning to `CC(CF)(CF)C(O)(Cc1ccncc1F)Cn1cncn1` (stereo not shown) [Example I-21], the Eff. % in series [11] (10 ppm of active ingredient) was found to be 93%; in [1], 100%; in [2] it was 100%; in [3] (100 ppm of active ingredient), 100%; in series [13], 100%; in [12], 94%. The Eff. % in series [5] stood at 100%; in series [7] (100 ppm of active ingredient), 98%; in series [8] (100 ppm of active ingredient), 100%; in [10] (100 ppm of active ingredient), 100%. Moreover, the LogP (pH 2.7) is 1.27^[a].
For the compound `OC(Cc1ccnc2ccccc12)(Cn1cncn1)C1(Cl)CC1` (stereo not shown) [Example I-27], the Eff. % is 100% in [1]; 100% in series [2]; 93% in series [5]; 89% in series [6]; 100% in series [8] (100 ppm of active ingredient); 98% in [9] (100 ppm of active ingredient). This compound returned an Eff. % in series [10] (100 ppm of active ingredient) of 98%. For the same compound, the LogP (pH 2.7) was 1.00^[a].
In the case of `OC(Cc1cc(Cl)ncc1F)(Cn1cncn1)C1(Cl)CC1` (stereo not shown) [Example I-40], the Eff. % in series [11] (10 ppm of active ingredient) was 73%; in series [1] it was 100%; in series [2], 100%; in [3] (500 ppm of active ingredient), 100%; in series [4] it was 100%; in [12] it was 100%. The Eff. % in [5] worked out at 86%; in series [7] (500 ppm of active ingredient) it was 97%; in [8] (500 ppm of active ingredient) it was 100%; in series [9] (500 ppm of active ingredient) it was 97%; in series [10] (500 ppm of active ingredient) it was 100%. For the setting “pH 2.7”, the LogP was 2.06^[a].
`OC(Cc1cc(Cl)nnc1Cl)(Cn1cncn1)C1(Cl)CC1` (stereo not shown) [Example I-46]: the Eff. % in series [2] is given as 92%; in series [3] (100 ppm of active ingredient), 100%; in [12], 83%; in series [5] it was 100%; in series [6] it was 78%; in [7] (100 ppm of active ingredient), 88%. Moreover, the Eff. % in [8] (100 ppm of active ingredient) is recorded as 100%. Further, the LogP (pH 2.7) was 1.92^[a].
In the case of `OC(Cc1cc(Cl)ncc1Cl)(Cn1cncn1)C1(Cl)CC1` (stereo not shown) [Example I-58], the Eff. % in series [11] (10 ppm of active ingredient) was determined as 89%; in series [1], 100%; in series [2], 100%; in series [3] (500 ppm of active ingredient), 100%; in [4], 95%; in [12], 93%. In addition, the Eff. % in [5] was found to be 100%; in series [6], 100%; in series [7] (500 ppm of active ingredient), 97%; in [8] (500 ppm of active ingredient) it was 100%; in [9] (500 ppm of active ingredient) it was 98%; in series [10] (500 ppm of active ingredient), 100%. Moreover, the LogP (pH 2.7) is 2.53^[a].
